Literature values, collected in EP0713864A1, “Substituted benzoylguanidines, process for their preparation, their use as medicament of diagnostic agent as well as medicaments containing them” (HOECHST AKTIENGESELLSCHAFT, priority 1994, dated 1996).

Test system: Kammerflimmern
Details: isolated rat hearts; Eur. Heart J. 9 (suppl.1): 167 (1988)

Row | Compound | Unterdrückung eines künstlich ausgelösten Kammerflimmerns
1 | N=C(N)NC(=O)c1nc(Cl)c(N)nc1N [Amilorid] | völlig unterdrückt
2 | CCN(c1nc(N)c(C(=O)NC(=N)N)nc1Cl)C(C)C [Ethylisopropylamilorid] | Noch potenter als Amilorid
